Laboratory results: ChEMBL document CHEMBL4229526, “Quinoxaline derivatives as potential antitrypanosomal and antileishmanial agents” (Bioorg Med Chem, 2018)
pIC50: −log10 of the molar value.

How the values were obtained:
Trypanosoma brucei = experiment: Antitrypanosomal activity against Trypanosoma brucei Lister 427 bloodstream forms after 48 hrs by resazurin dye based fluorescence assay; type: functional, organism-based; details: Lister 427, 48 h
Leishmania donovani [1] = experiment: Potency index, ratio of amphotericin B IC50 to test compound IC50 for Leishmania donovani MHOM/SD/62/1S-CL2D LdBOB axenic amastigotes harboring eGFP; type: functional
H9c2 = experiment: Cytotoxicity against rat H9c2 cells infected with Trypanosoma cruzi Tulahuen amastigote forms assessed as reduction in cell number after 72 hrs by DRAQ5 DNA dye based confocal microscopic analysis; details: H9c2, 72 h
Trypanosoma cruzi [2] = experiment: Antitrypanosomal activity against Trypanosoma cruzi Tulahuen amastigote forms infected in rat H9c2 cells assessed as reduction in infected cells after 72 hrs by DRAQ5 DNA dye based confocal microscopic analysis; type: functional, organism-based; details: H9c2, 72 h
Leishmania donovani [3] = experiment: Potency index, ratio of miltefosine IC50 to test compound IC50 for Leishmania donovani MHOM/SD/62/1S-CL2D LdBOB axenic amastigotes harboring eGFP; type: functional
Trypanosoma cruzi [4] = experiment: Antitrypanosomal activity against Trypanosoma cruzi Tulahuen amastigote forms infected in rat H9c2 cells assessed as reduction in amastigote number per cell after 72 hrs by DRAQ5 DNA dye based confocal microscopic analysis; type: functional, organism-based; details: H9c2, 72 h
Trypanosoma cruzi [5] = experiment: Antitrypanosomal activity against Trypanosoma cruzi Tulahuen trypomastigote forms infected in monkey LLC-MK2 cells after 24 hrs by CellTiter-Glo luminescent cell viability assay; type: functional, organism-based; details: LLC-MK2, 24 h
[6] = Cytotoxicity against human HepG2 cells after 48 hrs by CellTiter-Glo cell viability assay; type: cell-based
Leishmania donovani [7] = experiment: Antileishmanial activity against Leishmania donovani MHOM/SD/62/1S-CL2D LdBOB axenic amastigotes harboring eGFP after 72 hrs by resazurin dye based fluorescence assay; type: functional, organism-based
THP-1 = experiment: Cytotoxicity against human THP1 cells infected with Leishmania donovani MHOM/SD/62/1S-CL2D LdBOB amastigotes harboring eGFP assessed as reduction in cell number after 96 hrs by DAPI staining based microscopic analysis; details: THP-1, 96 h
Leishmania donovani [8] = experiment: Antileishmanial activity against Leishmania donovani MHOM/SD/62/1S-CL2D LdBOB amastigotes harboring eGFP infected in human THP1 cells assessed as reduction in infected cells after 96 hrs by DAPI staining based microscopic analysis; type: functional, organism-based; details: THP-1, 96 h
Leishmania donovani [9] = experiment: Antileishmanial activity against Leishmania donovani MHOM/SD/62/1S-CL2D LdBOB amastigotes harboring eGFP infected in human THP1 cells assessed as reduction in number of amastigotes per cell after 96 hrs by DAPI staining based microscopic analysis; type: functional, organism-based; details: THP-1, 96 h

SMILES	pIC50 (Trypanosoma brucei)	Ratio IC50 (Leishmania donovani [1])	pIC50 (H9c2)	pIC50 (Trypanosoma cruzi [2])	Ratio IC50 (Leishmania donovani [3])	pIC50 (Trypanosoma cruzi [4])	pIC50 (Trypanosoma cruzi [5])	CC50 at 48 h [6] [µM]	pIC50 (Leishmania donovani [7])	pIC50 (THP-1)	pIC50 (Leishmania donovani [8])	pIC50 (Leishmania donovani [9])
CS(=O)(=O)c1ccc(-c2nc3ccc(Br)cc3nc2-c2ccc(Cl)cc2)cc1	5.90	5.3	5.90	5.70	26.3	5.70	7.22	2	6.49	5.70	5.40	5.60
CS(=O)(=O)c1ccc(-c2nc3ccc(Cl)cc3nc2-c2ccc(Cl)cc2)cc1	5.60	5.3	5.80	5.70	26.3	5.70	7.05	2	6.49	5.80	5.30	5.30
C[S+]([O-])c1ccc(-c2nc3ccc(Cl)cc3nc2-c2ccc(Cl)cc2)cc1 (stereo unspecified)	6.20	5.3	5.80	5.70	26.3	5.80	7.00	1.58	6.49	5.80	5.50	5.40
